Literature values as cited in patent US20250161451A1, “ULTRASOUND-RESPONSIVE NANOSCALE DELIVERY PLATFORM FOR USE IN THE TREATMENT OF BIOFILM-ASSOCIATED DISEASES” (priority 2023, published 2025).

System: MRSA biofilms
Details: co-delivery with stimulated phase-shift nanodroplet platform, in vitro

## CN[C@H](CC(C)C)C(=O)N[C@H]1C(=O)N[C@@H](CC(N)=O)C(=O)N[C@H]2C(=O)N[C@H]3C(=O)N[C@H](C(=O)N[C@H](C(=O)O)c4cc(O)cc(O)c4-c4cc3ccc4O)[C@H](O)c3ccc(c(Cl)c3)Oc3cc2cc(c3O[C@@H]2O[C@H](CO)[C@@H](O)[C@H](O)[C@H]2O[C@H]2C[C@](C)(N)[C@H](O)[C@H](C)O2)Oc2ccc(cc2Cl)[C@H]1O [vancomycin]
  bactericidal effect on MRSA biofilms: strong but incomplete bactericidal effect
